Where a name gives a salt, the structure may show the parent alone.
What was measured:
[1] = tested on: acetylcholine (ACh) levels in hippocampus; test: Hippocampal acetylcholine levels by implanted microdialysis probe and HPLC; type: in vivo; settings: wild-type mice
Protocol: […] Rivastigmine was administered subcutaneously with an Alzet minipump whereas LMTM was administered by oral gavage. Levels of ACh were measured in hippocampus using an implanted microdialysis probe and HPLC analysis of the extracellular fluid.
Data are presented as group averages and standard errors of mean and were analysed using parametric statistics, with alpha set to 0.05.

[2] = tested on: ACh levels in the hippocampus; test: Hippocampal ACh microdialysis with rivastigmine and scopolamine in the perfusion fluid; type: in vivo, wild type mice
From the text: Under the condition of cholinesterase inhibition used in these experiments (a very small amount of a cholinesterase inhibitor, 100 nanomolar rivastigmine, added to the perfusion fluid), ACh levels in the hippocampus rise, and when they rise strongly enough, they limit additional ACh release by activating pre-synaptic muscarinic receptors of the M2/M4 subtype (so-called negative feedback receptors).
In this situation, adding scopolamine ([…]) to the perfusion fluid blocks these presynaptic receptors and, as a consequence, ACh levels rise by 3-5 fold. The fact that LMTM is not additive with rivastigmine in these experiments supports the conclusion that LMTM has a different mechanism of action from rivastigmine. In other words, although LMTM has been described as being a weak inhibitor of cholinesterases in high concentrations, the present effects seem to be unrelated to cholinesterase inhibition, because there is no additive effect with small quantities of rivastigmine.

tau transgenic L1 mice = test: Treatment effects of LMTM and rivastigmine in tau transgenic L1 mice; type: in vivo; settings: results not shown
From the text: In the L1 mouse model which was used in some of the present studies, there is over-expression of a three-repeat tau fragment encompassing residues 296-390 of the 2N4R tau isoform under the control of the Thy 1 promotor in an NMRI mouse strain (WO2002/059150). This fragment corresponds to the segment of tau first identified within the proteolytically stable core of the PHF (Wischik et al., 1988a; Wischik et al., 1988b) and recently confirmed by cryo-electronmicroscopy of PHFs in AD and tau filaments in Pick's disease (Fitzpatrick et al., 2017; Falcon et al., 2018).
The treatment schedule used to study the negative interaction between symptomatic treatments and LMTM was designed to model the clinical situation in which subjects are first treated chronically with a cholinesterase inhibitor or memantine before receiving LMTM. In what follows, we summarise some of the key results obtained for the AChEI, rivastigmine. […]
For measurement of acetylcholine (ACh) levels in hippocampus, animals (wild-type or L1) were treated with LMTM (5 mg/kg/day for 2 weeks) after prior treatment for 2 weeks with or without rivastigmine (0.5 mg/kg/day). […] Levels of ACh were measured in hippocampus using an implanted microdialysis probe and HPLC analysis of the extracellular fluid.

Mitochondrial complex IV = test: Direct measurement of mitochondrial complex IV activity after treatment; type: in vivo; settings: wild type mice
Protocol: (§1) The treatment schedule used to study the negative interaction between symptomatic treatments and LMTM was designed to model the clinical situation in which subjects are first treated chronically with a cholinesterase inhibitor or memantine before receiving LMTM. In what follows, we summarise some of the key results obtained for the AChEI, rivastigmine. Wild-type and L1 mice (n=7-16 for each group) were pre-treated with rivastigmine (0.1 or 0.5 mg/kg/day) or memantine (2 or 20 mg/kg/day) or vehicle for 5 weeks by gavage. For the following 6 weeks, LMTM (5 and 15 mg/kg) or vehicle were added to this daily treatment regime, also by gavage. Animals were tested behaviourly during weeks 10 and 11 using a problem solving task in the open field water maze and then sacrificed for immunohistochemical and other tissue analyses.

wild-type mice = test: Behaviour: problem solving task in the open field water maze; type: in vivo
Protocol: as §1

synaptophysin = test: Quantitative immunohistochemistry of synaptophysin in brain sections; type: in vivo; settings: wild-type mice
Protocol: Wild-type and L1 mice (n=7-16 for each group) were pre-treated with rivastigmine (0.1 or 0.5 mg/kg/day) or memantine (2 or 20 mg/kg/day) or vehicle for 5 weeks by gavage. For the following 6 weeks, LMTM (5 and 15 mg/kg) or vehicle were added to this daily treatment regime, also by gavage. Animals were tested behaviourly during weeks 10 and 11 using a problem solving task in the open field water maze and then sacrificed for immunohistochemical and other tissue analyses.

[3] = LMTM alone 5 or 15 mg/kg/day, approximate rounded percentage

SMILES | increase in basal ACh levels in hippocampus ([1]; LMTM 5 mg/kg/day for 2 weeks, oral gavage, significant (FIG. 1A)) [fold] | ACh release, ↑ (increase) [1, 3] | effect on ACh levels in scopolamine experiments ([2]; wild type mice, 100 nanomolar rivastigmine in the perfusion fluid, scopolamine blocking M2/M4 receptors) | treatment effects in L1 mice compared with wild-type mice (tau transgenic L1 mice) | complex IV activity following LMTM treatment (Mitochondrial complex IV) | spatial recognition memory (wild-type mice) | Synaptophysin, ↑ (increase) (synaptophysin; [3]) | increase in mean synaptophysin levels (synaptophysin; mean of hippocampus, visual cortex, diagonal band and septum, LMTM alone (FIG. 1B)) [fold] | rise in ACh levels in the hippocampus ([2]; scopolamine (μM) added to perfusion fluid containing 100 nanomolar rivastigmine)
CN(C)c1ccc2c(c1)Sc1cc(N(C)C)ccc1N2 [LMTM, hydromethylthionine mesylate] | 2 | ↑ × 200% | less than that seen with rivastigmine alone | larger and more generalised | did not show any increase | not associated with improvement | ↑ × 300% | 3 | 
CN1[C@@H]2C[C@@H](OC(=O)[C@H](CO)c3ccccc3)C[C@H]1[C@@H]1O[C@@H]12 [scopolamine, reference compound] |  |  |  |  |  |  |  |  | 3-5 fold

Source: patent US20220330594A1 (WisTa Laboratories Ltd., priority 2019, published 2022)
